Laboratory results reported in patent US10669235B2, “Indole derivatives and their use as protein kinase inhibitors” (RESPIVERT LIMITED, priority 2016, dated 2020).
Structures can show the parent of a compound that is named as a salt.

Experiments:
PDGFRβ [1] = molecular target: T1, PDGFRβ (Homo sapiens (Human), UniProt P09619); experiment: PDGFRβ enzyme inhibition (ADP-Glo assay); assay type: biochemical; settings: mean, n = 2 (nintedanib n = 34)
PDGFRβ [2] = molecular target: T1, PDGFRβ; experiment: PDGF-BB induced phosphorylation of PDGFRβ in fibroblasts (MRC5, HTRF); assay type: cell-based; settings: MRC5 cells, PDGFBB stimulation; read-out: PDGFBB-induced PDGFRβ phosphorylation in MRC5 cells (IC50)
MRC5 cells = experiment: Cell viability assay in MRC5 cells (MTT)
PAMPA permeability assay = assay type: in vitro ADME; settings: pH 7, PAMPA; for Papp at 5 h, 10 µM: pH 7, 10 μM

T1 sequence (P09619 33-1106): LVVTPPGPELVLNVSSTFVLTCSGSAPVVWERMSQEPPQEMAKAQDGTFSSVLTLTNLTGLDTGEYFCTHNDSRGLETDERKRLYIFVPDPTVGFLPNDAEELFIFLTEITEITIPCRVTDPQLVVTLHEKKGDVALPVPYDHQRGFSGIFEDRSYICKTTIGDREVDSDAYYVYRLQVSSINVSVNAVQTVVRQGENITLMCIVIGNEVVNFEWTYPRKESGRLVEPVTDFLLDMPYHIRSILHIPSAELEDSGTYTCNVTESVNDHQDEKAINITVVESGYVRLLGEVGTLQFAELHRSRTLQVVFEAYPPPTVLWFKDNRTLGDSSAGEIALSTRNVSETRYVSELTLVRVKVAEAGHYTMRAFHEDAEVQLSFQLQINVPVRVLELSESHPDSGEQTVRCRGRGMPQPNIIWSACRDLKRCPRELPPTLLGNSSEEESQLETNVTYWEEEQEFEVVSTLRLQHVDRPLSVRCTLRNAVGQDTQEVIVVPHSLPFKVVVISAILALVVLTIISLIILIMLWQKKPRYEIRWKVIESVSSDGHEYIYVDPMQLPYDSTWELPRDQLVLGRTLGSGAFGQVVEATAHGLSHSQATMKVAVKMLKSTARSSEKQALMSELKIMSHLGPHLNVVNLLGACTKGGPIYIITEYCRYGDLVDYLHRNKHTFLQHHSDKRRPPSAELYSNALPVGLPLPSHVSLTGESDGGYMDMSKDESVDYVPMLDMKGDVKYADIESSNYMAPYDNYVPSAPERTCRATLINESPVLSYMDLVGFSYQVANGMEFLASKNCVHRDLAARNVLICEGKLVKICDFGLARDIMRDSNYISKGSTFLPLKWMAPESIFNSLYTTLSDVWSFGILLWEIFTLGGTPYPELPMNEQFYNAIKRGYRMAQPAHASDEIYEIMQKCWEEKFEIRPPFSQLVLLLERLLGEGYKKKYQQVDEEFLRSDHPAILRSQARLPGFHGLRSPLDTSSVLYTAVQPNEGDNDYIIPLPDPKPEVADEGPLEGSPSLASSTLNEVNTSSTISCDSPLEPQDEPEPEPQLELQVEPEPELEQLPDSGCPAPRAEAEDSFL

SMILES	Ki (PDGFRβ [1]) [nM]	IC50 (PDGFRβ [2]) [nM]	Cell viability at 100 nM (%) (MRC5 cells)	Cell viability at 300 nM (%) (MRC5 cells)	Cell viability at 1000 nM (%) (MRC5 cells)	recovery at 5 hr, 10 μM (PAMPA permeability assay) [%]	Papp at 5 h, 10 µM (PAMPA permeability assay) [×10⁻⁶ cm/s]
COC(=O)c1cc2c(cc1C)/C(=C(/Nc1ccc(C(=O)N3CC[C@@H](CN(C)C)[C@H](O)C3)cc1)c1ccccc1)C(=O)N2 [Example 33, (Z)-Methyl 3-(((4-((3S,4S)-4-((dimethylamino)methyl)-3-hydroxypiperidine-1-carbonyl)phenyl)amino)(phenyl)methylene)-5-methyl-2-oxoindoline-6-carboxylate]	6.82	2.32	86.6	63.1	19.8	69.1	0.0269
COC(=O)c1cc2c(cc1C)/C(=C(/Nc1ccc(C(=O)NC3CCN(CCO)CC3)cc1)c1ccccc1)C(=O)N2 [Example 13, (Z)-Methyl 3-(((4-((1-(2-hydroxyethyl)piperidin-4-yl)carbamoyl)phenyl)amino) (phenyl)methylene)-5-methyl-2-oxoindoline-6-carboxylate]	10.4	1.25	84.3	93.2	102.1	76.3	0.0439
COCCN(C)CCNC(=O)c1ccc(N/C(=C2\C(=O)Nc3cc(C(=O)OC)c(C)cc32)c2ccccc2)cc1 [Example 35, (Z)-Methyl 3-(((4-((2-((2-methoxyethyl)(methyl)amino)ethyl)carbamoyl)phenyl)amino)(phenyl)methylene)-5-methyl-2-oxoindoline-6-carboxylate, 0.5 formate]	17	17.3	99.8	122.5	99.1	79.2	10.7
COC(=O)c1cc2c(cc1C)/C(=C(/Nc1ccc(C(=O)N3CCC4(CC3)C(=O)NCCCN4C)cc1)c1ccccc1)C(=O)N2 [Example 43, (Z)-Methyl-5-methyl-3-(((4-(7-methyl-12-oxo-3,7,11-triazaspiro[5.6]dodecane-3-carbonyl)phenyl)amino)(phenyl)methylene)-2-oxoindoline-6-carboxylate]	25.2	2.31	–	58.8	6.4	–	0.865
COC(=O)c1cc2c(cc1C)/C(=C(/Nc1ccc(C(=O)N3CCN(CCO)CC3)cc1)c1ccccc1)C(=O)N2 [Example 19, (Z)-Methyl 3-(((4-(4-(2-hydroxyethyl)piperazine-1-carbonyl)phenyl)amino)(phenyl)methylene)-5-methyl-2-oxoindoline-6-carboxylate, 0.5 formate]	8.79	5.04	85.5	71.8	21.9	61.8	0.589
COCCNC(=O)CN1CCN(C(=O)c2ccc(N/C(=C3\C(=O)Nc4cc(C(=O)OC)c(C)cc43)c3ccccc3)cc2)CC1 [Example 39, (Z)-Methyl-3-(((4-(4-(2-((2-methoxyethyl)amino)-2-oxoethyl)piperazine-1-carbonyl)phenyl)amino)(phenyl)methylene)-5-methyl-2-oxoindoline-6-carboxylate]	14.1	5.95	96.2	73.3	36.7	85.7	0.633
COC(=O)c1cc2c(cc1C)/C(=C(/Nc1ccc(C(=O)NCCCN(C)C)cc1)c1ccccc1)C(=O)N2 [Example 22, (Z)-Methyl 3-(((4-((3-(dimethylamino)propyl)carbamoyl)phenyl)amino)(phenyl)methylene)-5-methyl-2-oxoindoline-6-carboxylate, 0.5 formate]	9.29	12.3	72.3	58.8	48.8	101	0.046
COC(=O)c1cc2c(cc1C)/C(=C(/Nc1ccc(C(=O)N3CCC4(CC3)C(=O)NCCN4C)cc1)c1ccccc1)C(=O)N2 [Example 30, (Z)-Methyl 5-methyl-3-(((4-(1-methyl-5-oxo-1,4,9-triazaspiro[5.5]undecane-9-carbonyl)phenyl)amino)(phenyl)methylene)-2-oxoindoline-6-carboxylate]	10	6.02	107.2	85.3	16.4	87.2	0.0235
COC(=O)c1cc2c(cc1C)/C(=C(/Nc1ccc(C(=O)NCC3(N(C)C)CCC3)cc1)c1ccccc1)C(=O)N2 [Example 40, (Z)-Methyl 3-(((4-(((1-(dimethylamino)cyclobutyl)methyl)carbamoyl)phenyl)amino)(phenyl)methylene)-5-methyl-2-oxoindoline-6-carboxylate, 0.3 formate]	12.8	13.4	95.4	88	82.9	56	26.5
CNC(=O)CN1CCN(C(=O)c2ccc(N/C(=C3\C(=O)Nc4cc(C(=O)OC)c(C)cc43)c3ccccc3)cc2)CC1 [Example 11, (Z)-Methyl 5-methyl-3-(((4-(4-(2-(methylamino)-2-oxoethyl)piperazine-1-carbonyl)phenyl)amino) (phenyl)methylene)-2-oxoindoline-6-carboxylate]	10.6	2.75	82	67.8	28.5	93.2	0.0479
COC(=O)c1cc2c(cc1C)/C(=C(/Nc1ccc(C(=O)NCCCN3CCOCC3)cc1)c1ccccc1)C(=O)N2 [Example 29, (Z)-Methyl 5-methyl-3-(((4-((3-morpholinopropyl)carbamoyl)phenyl)amino)(phenyl)methylene)-2-oxoindoline-6-carboxylate]	11.2	3.65	116.9	72.5	60.8	72.1	0.373
COC(=O)c1cc2c(cc1C)/C(=C(/Nc1ccc(C(=O)NCC3(N(C)C)CCOCC3)cc1)c1ccccc1)C(=O)N2 [Example 36, (Z)-Methyl 3-(((4-(((4-(dimethylamino)tetrahydro-2H-pyran-4-yl)methyl)carbamoyl)phenyl)amino)(phenyl)methylene)-5-methyl-2-oxoindoline-6-carboxylate]	15.9	9.96	87.3	77.2	69.6	77.4	8.96
COC(=O)c1cc2c(cc1C)/C(=C(/Nc1ccc(C(=O)NCCC(=O)N3CCN(C)CC3)cc1)c1ccccc1)C(=O)N2 [Example 10, (Z)-Methyl 5-methyl-3-(((4-((3-(4-methylpiperazin-1-yl)-3-oxopropyl)carbamoyl)phenyl)amino) (phenyl)methylene)-2-oxoindoline-6-carboxylate]	12.7	15.9	85	118.9	108.4	70.4	0.0428
COC(=O)c1cc2c(cc1C)/C(=C(/Nc1ccc(C(=O)N3CCC(CO)(CN(C)C)CC3)cc1)c1ccccc1)C(=O)N2 [Example 38, (Z)-Methyl-3-(((4-(4-((dimethylamino)methyl)-4-(hydroxymethyl)piperidine-1-carbonyl)phenyl)amino)(phenyl)methylene)-5-methyl-2-oxoindoline-6-carboxylate]	4.79	1.7	70.7	63	4.2	70.3	0.0269
COC(=O)c1cc2c(cc1C)/C(=C(/Nc1ccc(C(=O)NCCN3CCCN(C(C)=O)CC3)cc1)c1ccccc1)C(=O)N2 [Example 34, (Z)-Methyl 3-(((4-((2-(4-acetyl-1,4-diazepan-1-yl)ethyl)carbamoyl)phenyl)amino)(phenyl)methylene)-5-methyl-2-oxoindoline-6-carboxylate]	14.4	4.71	82.9	74.4	16.2	41.1	0.00748
